Measured values from US8889874B2, “Imidazolone-chalcone derivatives as potential anticancer agent and process for the preparation thereof” (Council of Scientific and Industrial Research, priority 2010, dated 2014).
Read-outs that look alike come from different tables or passages of the source.

Experiments:
Type in all cases: cell-based, human
[1] = test system: ACHN (renal); experiment: NCI anticancer screen, SRB assay, 48 h; details: Homo sapiens
Summary of the method: (§1)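 Sulforhodamine B protein assay read cell growth after 48 h of continuous compound exposure. Dose-response curves per cell line used at least five 10-fold-diluted concentrations, within a panel of fifty-three human lines from nine tumour types.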

[2] = test system: COLO 205 (colon); experiment: NCI anticancer screen, SRB assay, 48 h; details: Homo sapiens, COLO 205
Summary of the method: as §1

[3] = test system: HCC-2998 (colon); experiment: NCI anticancer screen, SRB assay, 48 h; details: Homo sapiens
Summary of the method: as §1

[4] = test system: HOP-62 (non-small cell lung); experiment: NCI anticancer screen, SRB assay, 48 h; details: Homo sapiens
Summary of the method: as §1

[5] = test system: HOP-92 (non-small cell lung); experiment: NCI anticancer screen, SRB assay, 48 h; details: Homo sapiens
Summary of the method: as §1

[6] = test system: M14 (melanoma); experiment: NCI anticancer screen, SRB assay, 48 h; details: Homo sapiens
Summary of the method: as §1

[7] = test system: NCI-H460 (non-small cell lung); experiment: NCI anticancer screen, SRB assay, 48 h; details: Homo sapiens
Summary of the method: as §1

[8] = test system: NCI/ADR-RES (ovarian); experiment: NCI anticancer screen, SRB assay, 48 h; details: Homo sapiens, NCI/ADR-RES
Summary of the method: as §1

[9] = test system: OVCAR-5 (ovarian); experiment: NCI anticancer screen, SRB assay, 48 h; details: Homo sapiens
Summary of the method: as §1

[10] = test system: RXF 393 (renal); experiment: NCI anticancer screen, SRB assay, 48 h; details: Homo sapiens
Summary of the method: as §1

[11] = test system: SF-539 (CNS); experiment: NCI anticancer screen, SRB assay, 48 h; details: Homo sapiens
Summary of the method: as §1

[12] = test system: SK-MEL-2 (melanoma); experiment: NCI anticancer screen, SRB assay, 48 h; details: Homo sapiens
Summary of the method: as §1

[13] = test system: SK-MEL-28 (melanoma); experiment: NCI anticancer screen, SRB assay, 48 h; details: Homo sapiens
Summary of the method: as §1

[14] = test system: SN12C (renal); experiment: NCI anticancer screen, SRB assay, 48 h; details: Homo sapiens, SN12C
Summary of the method: as §1

[15] = test system: SNB-19 (CNS); experiment: NCI anticancer screen, SRB assay, 48 h; details: Homo sapiens
Summary of the method: as §1

[16] = test system: U251 (CNS); experiment: NCI anticancer screen, SRB assay, 48 h; details: Homo sapiens
Summary of the method: as §1

[17] = test system: UO-31 (renal); experiment: NCI anticancer screen, SRB assay, 48 h; details: Homo sapiens
Summary of the method: as §1

[18] = test system: Breast cancer cell lines; experiment: NCI anticancer screen, SRB assay, panel summary; details: Homo sapiens
Summary of the method: as §1

[19] = test system: CNS cancer cell lines; experiment: NCI anticancer screen, SRB assay, panel summary; details: for GI50: Homo sapiens
Summary of the method: as §1

[20] = test system: Colon cancer cell lines; experiment: NCI anticancer screen, SRB assay, panel summary; details: for GI50: Homo sapiens
Summary of the method: as §1

[21] = test system: Leukemia cancer cell lines; experiment: NCI anticancer screen, SRB assay, panel summary; details: Homo sapiens
Summary of the method: as §1

[22] = test system: Melanoma cancer cell lines; experiment: NCI anticancer screen, SRB assay, panel summary; details: for GI50: Homo sapiens
Summary of the method: as §1

[23] = test system: Non-small cell lung cancer cell lines; experiment: NCI anticancer screen, SRB assay, panel summary; details: Homo sapiens
Summary of the method: as §1

[24] = test system: Ovarian cancer cell lines; experiment: NCI anticancer screen, SRB assay, panel summary; details: Homo sapiens
Summary of the method: as §1

[25] = test system: Prostate cancer cell lines; experiment: NCI anticancer screen, SRB assay, panel summary
Summary of the method: as §1

[26] = test system: Renal cancer cell lines; experiment: NCI anticancer screen, SRB assay, panel summary; details: Homo sapiens
Summary of the method: as §1

[27] = 48 h exposure, SRB, read-out: GI50
[28] = read-out: pGI50 (-log of molar concentration causing 50% inhibition of net cell growth) (converted)

## COc1cc(/C=C/C(=O)c2cccc(-n3cc(-c4ccccc4)[nH]c3=O)c2)cc(OC)c1OC [5a, 4-phenyl-1-3-[(E)-3-(3,4,5-trimethoxyphenyl)-2-propenoyl]phenyl-2,3-dihydro-1H-2-imidazolone]
[1]; [27]
  GI50: 1600 nM
[1]; [28]
  GI50: 1580 nM
[2]; COLO205, read-out: pGI50 (-log of molar concentration causing 50% inhibition of net cell growth) (converted)
  GI50: 1510 nM
[2]; [27]
  GI50: 1510 nM
[3]; [27]
  GI50: 1260 nM
[3]; [28]
  GI50: 1260 nM
[4]; [27]
  GI50: 4120 nM
[4]; [28]
  GI50: 4070 nM
[5]; [27]
  GI50: 10800 nM
[5]; [28]
  GI50: 10700 nM
[6]; [27]
  GI50: 1350 nM
[6]; [28]
  GI50: 1350 nM
[7]; [27]
  GI50: 1400 nM
[7]; [28]
  GI50: 1410 nM
[8]; NCl/ADR-RES, 48 h exposure, SRB, read-out: GI50
  GI50: 1100 nM
[8]; [28]
  GI50: 1100 nM
[9]; [27]
  GI50: 1880 nM
[9]; [28]
  GI50: 1860 nM
[10]; RXF 393, 48 h exposure, SRB, read-out: GI50
  GI50: 1710 nM
[10]; RXF-393, read-out: pGI50 (-log of molar concentration causing 50% inhibition of net cell growth) (converted)
  GI50: 1700 nM
[11]; [27]
  GI50: 1680 nM
[11]; [28]
  GI50: 1700 nM
[12]; [27]
  GI50: 2060 nM
[12]; [28]
  GI50: 2040 nM
[13]; [27]
  GI50: 1740 nM
[13]; [28]
  GI50: 1740 nM
[14]; SN 12C, read-out: pGI50 (-log of molar concentration causing 50% inhibition of net cell growth) (converted)
  GI50: 2090 nM
[14]; [27]
  GI50: 2090 nM
[15]; [27]
  GI50: 2350 nM
[15]; [28]
  GI50: 2340 nM
[16]; U-251, 48 h exposure, SRB, read-out: GI50
  GI50: 630 nM
[16]; U-251, read-out: pGI50 (-log of molar concentration causing 50% inhibition of net cell growth) (converted)
  GI50: 631 nM
[17]; [27]
  GI50: 1510 nM
[17]; [28]
  GI50: 1510 nM
[18]; Breast panel, log of concentration in mol/L causing 50% inhibition of net cell growth, read-out: mean graph midpoint (MG_MID) of Log10 GI50 (converted)
  GI50: 1580 nM
[18]; Breast panel, log of concentration leading to 50% net cell death, read-out: mean graph midpoint (MG_MID) of Log10 LC50 (converted)
  LC50: 38000 nM
[18]; five breast cancer cell lines, exposure at least 48 hrs, read-out: GI50, range over the panel
  GI50: 310 to 3410 nM
[19]; CNS panel, log of concentration leading to 50% net cell death
  mean graph midpoint (MG_MID) of Log10 LC50: 5.13
[19]; CNS panel, log of concentration in mol/L causing 50% inhibition of net cell growth, read-out: mean graph midpoint (MG_MID) of Log10 GI50 (converted)
  GI50: 1860 nM
[19]; six CNS cancer cell lines, exposure at least 48 hrs, read-out: GI50, range over the panel
  GI50: 630 to 4470 nM
[20]; Colon panel, log of concentration leading to 50% net cell death
  mean graph midpoint (MG_MID) of Log10 LC50: 5.23
[20]; Colon panel, log of concentration in mol/L causing 50% inhibition of net cell growth, read-out: mean graph midpoint (MG_MID) of Log10 GI50 (converted)
  GI50: 832 nM
[20]; seven colon cancer cell lines, exposure at least 48 hrs, read-out: GI50, range over the panel
  GI50: 330 to 1510 nM
[21]; Leukemia panel, log of concentration in mol/L causing 50% inhibition of net cell growth, read-out: mean graph midpoint (MG_MID) of Log10 GI50 (converted)
  GI50: 562 nM
[21]; Leukemia panel, log of concentration leading to 50% net cell death, read-out: mean graph midpoint (MG_MID) of Log10 LC50 (converted)
  LC50: ≥ 100000 nM
[21]; two leukemia cancer cell lines (RPMI-8226 and K-562), exposure at least 48 hrs, read-out: GI50, range over the panel
  GI50: 500 to 620 nM
[22]; Melanoma panel, log of concentration in mol/L causing 50% inhibition of net cell growth, read-out: mean graph midpoint (MG_MID) of Log10 GI50 (converted)
  GI50: 1320 nM
[22]; nine melanoma cancer cell lines, exposure at least 48 hrs, read-out: GI50, range over the panel
  GI50: 480 to 2060 nM
[22]; Melanoma panel, log of concentration leading to 50% net cell death
  mean graph midpoint (MG_MID) of Log10 LC50: 5.02
[23]; Non-small cell lung panel, log of concentration in mol/L causing 50% inhibition of net cell growth, read-out: mean graph midpoint (MG_MID) of Log10 GI50 (converted)
  GI50: 3090 nM
[23]; Non-small cell lung panel, log of concentration leading to 50% net cell death, read-out: mean graph midpoint (MG_MID) of Log10 LC50 (converted)
  LC50: 32400 nM
[23]; nine non-small cell lung cancer cell lines, exposure at least 48 hrs, read-out: GI50, range over the panel
  GI50: 950 to 14600 nM
[24]; Ovarian panel, log of concentration in mol/L causing 50% inhibition of net cell growth, read-out: mean graph midpoint (MG_MID) of Log10 GI50 (converted)
  GI50: 1740 nM
[24]; Ovarian panel, log of concentration leading to 50% net cell death, read-out: mean graph midpoint (MG_MID) of Log10 LC50 (converted)
  LC50: 42700 nM
[24]; six ovarian cancer cell lines, exposure at least 48 hrs, read-out: GI50, range over the panel
  GI50: 1100 to 3270 nM
[25]; Homo sapiens, log of concentration in mol/L causing 50% inhibition of net cell growth, read-out: mean graph midpoint (MG_MID) of Log10 GI50 (converted)
  GI50: 3240 nM
[25]; Homo sapiens, log of concentration leading to 50% net cell death, read-out: mean graph midpoint (MG_MID) of Log10 LC50 (converted)
  LC50: ≥ 100000 nM
[25]; log of concentration resulting in total inhibition of net cell growth
  mean graph midpoint (MG_MID) of Log10 TGI: 4.68
[26]; Renal panel, log of concentration in mol/L causing 50% inhibition of net cell growth, read-out: mean graph midpoint (MG_MID) of Log10 GI50 (converted)
  GI50: 1910 nM
[26]; Renal panel, log of concentration leading to 50% net cell death, read-out: mean graph midpoint (MG_MID) of Log10 LC50 (converted)
  LC50: 17000 nM
[26]; eight renal cancer cell lines, exposure at least 48 hrs, read-out: GI50, range over the panel
  GI50: 1380 to 3020 nM
